Measurements: patent publication US12414994B2, “Compositions comprising lopinavir and treatment of conditions” (DOUGLAS PHARMACEUTICALS LIMITED, priority 2019, dated 2025)
Read-outs that look alike come from different tables or passages of the source.

Experiments:
[1] = test system: labial or skin HSV lesions; settings: episodic topical application, cited from earlier work
[2] = test system: herpesvirus; settings: Gantt et al. (2011) Table 1; cited from earlier work
[3] = test system: acyclovir resistant HSV2 strain 132349 ACV-res; assay: Acyclovir resistant HSV2 replication assay in N-Tert keratinocytes; format: cell-based
Method: (§1) Cell Culture; Telomerase immortalised N-Tert human foreskin Keratinocyes were maintained in standard T-75 tissue culture flasks (Corning, USA) in 25 ml of Keratinocyte serum-free medium (KSFM) supplemented with L-glutamine, 0.2 ng/ml epidermal growth factors (EGF) and 25 μg/mL bovine pituitary extract (BPE) (Gibco, Invitrogen, UK). These were maintained at 37° C. in a humidified atmosphere of 5% CO2 and the medium was changed every 2 days as required. For routine sub-culture the medium was aspirated, cells washed with PBS (Gibco-Invitrogen, UK) and 2 ml of Cell Culture Grade Trypsin 0.05% solution with EDTA (Gibco-Invitrogen, UK) added to each flask which was incubated at 37° C./5% CO2 for 10 minutes. A 10 ml aliquot of KSFM plus 10% foetal bovine serum (FBS) (Gibco-Invitrogen, UK) was then added and the cells centrifuged at 6000 g for 6 minutes. The medium was aspirated and cells washed with 10 mls of PBS (Gibco Invitrogen, UK) followed by re-suspension in 10 mls of fresh KSFM and final a cell count carried out. HSV1 & 2 Replication Assays; T25 flasks (Corning, USA) were each seeded with 600,000 N-Tert cells in serum-free KSFM plus supplements and incubated at 37° C./5% CO2 until confluent (Approximately 72 hours). The medium was then aspirated and cells infected with either 25 μl aliquot of HSV2 strain HG52, 1 μl of HSV1 strain 17+ or a 5 μl aliquot of the acyclovir resistant HSV2 strain 132349 ACV-res (Public Health England, Porton Down, UK) in 0.5 ml of serum-free KSFM plus supplements for a period of 2 hours at 37° C./5% CO2. The volume of each HSV strain stock used was empirically determined as the amount required to produce pronounced cytopathic changes in infected control flasks over the time course of the experiment. A 9.5 ml aliquot of KSFM plus supplements was then added to each flask and cells infected with the HG52 or 17+ strains incubated overnight whereas cell infected with the 132349 ACV-res strain were incubated for 5 hours at 37° C./5% CO2. […] Where mixed APIs were used, concentrations were calculated as w/w ratios. […]

[4] = test system: HSV-2 132349 ACV-res; settings: Houston et al (2017) Table 2; cited from earlier work
[5] = test system: HSV1 17+ strain; settings: Houston et al (2017) Table 2; cited from earlier work
[6] = test system: HSV2 strain HG52; assay: HSV2 replication assay in N-Tert keratinocytes (anti-HSV immunostaining); format: cell-based; settings: for effect against HSV2 replication: FIG. 2B
Method: (§2) Cell Culture; Telomerase immortalised N-Tert human foreskin Keratinocyes were maintained in standard T-75 tissue culture flasks (Corning, USA) in 25 ml of Keratinocyte serum-free medium (KSFM) supplemented with L-glutamine, 0.2 ng/ml epidermal growth factors (EGF) and 25 μg/mL bovine pituitary extract (BPE) (Gibco, Invitrogen, UK). These were maintained at 37° C. in a humidified atmosphere of 5% CO2 and the medium was changed every 2 days as required. For routine sub-culture the medium was aspirated, cells washed with PBS (Gibco-Invitrogen, UK) and 2 ml of Cell Culture Grade Trypsin 0.05% solution with EDTA (Gibco-Invitrogen, UK) added to each flask which was incubated at 37° C./5% CO2 for 10 minutes. A 10 ml aliquot of KSFM plus 10% foetal bovine serum (FBS) (Gibco-Invitrogen, UK) was then added and the cells centrifuged at 6000 g for 6 minutes. The medium was aspirated and cells washed with 10 mls of PBS (Gibco Invitrogen, UK) followed by re-suspension in 10 mls of fresh KSFM and final a cell count carried out. HSV1 & 2 Replication Assays; T25 flasks (Corning, USA) were each seeded with 600,000 N-Tert cells in serum-free KSFM plus supplements and incubated at 37° C./5% CO2 until confluent (Approximately 72 hours). The medium was then aspirated and cells infected with either 25 μl aliquot of HSV2 strain HG52, 1 μl of HSV1 strain 17+ or a 5 μl aliquot of the acyclovir resistant HSV2 strain 132349 ACV-res (Public Health England, Porton Down, UK) in 0.5 ml of serum-free KSFM plus supplements for a period of 2 hours at 37° C./5% CO2. The volume of each HSV strain stock used was empirically determined as the amount required to produce pronounced cytopathic changes in infected control flasks over the time course of the experiment. A 9.5 ml aliquot of KSFM plus supplements was then added to each flask and cells infected with the HG52 or 17+ strains incubated overnight whereas cell infected with the 132349 ACV-res strain were incubated for 5 hours at 37° C./5% CO2. Stock solutions of each active pharmaceutical ingredient (API) were freshly prepared every week from dry powder (Douglas Pharna, NZ) dissolved volumetrically in DMSO at 100 mM and stored at −20° C. Appropriate final dilutions of these API stocks solutions were made in KSFM plus supplements such that the same volume of DMSO (2 μl) was added to each infected flask. Where mixed APIs were used, concentrations were calculated as w/w ratios. API treated HSV2 HG52 infected cells were then incubated for 48 hours, HSV1 17+ infected cells were incubated for 8 hours and HSV-2 132349 ACV-res infected cells were incubated for 12 hours prior to harvesting for immunostaining. A concentration of 5 μM Acyclovir (VWR International, UK) was also added as a comparator to flasks infected with HSV-2 132349 ACV-res in order to verify the acyclovir resistant nature of the strain. […] Harvesting & Immunostaining; Growth medium was decanted from each flask and placed into 15 ml universal tubes (Corning, USA) and the cells rinsed with 1 ml of 1×PBS which was pooled with the growth medium. A 1 ml aliquot of NB Cell Culture Grade Trypsin 0.05% solution with EDTA was added to each T-25 flask and cells incubated at 37° C./5% CO2 for 10 minutes. A 1 ml aliquot of FBS was added to the decanted growth medium plus PBS from the previous step and 2 ml of this was then added to each flask to inactivate the trypsin. The trypsinised cells were then pooled with the decanted growth medium and an aliquot taken for analysis of cell viability using Via-1 cassette NC3000 cell cytometer assays (CheoMetec A/S, Denmark). The remaining cells were centrifuged at 6000 g for 5 minutes, the medium aspirated and the cells re-suspended and washed with 10 ml of PBS followed by re-centrifugation. Finally the cells were re-suspended in 70% of ice-cold ethanol, stored overnight at 4° C. and a volume containing 60,000 cells was aliquoted into 1.5 ml Eppendorf tubes and centrifuged for 5 minutes at 5000 rpm. […]

[7] = test system: HSV1 strain 17+; assay: HSV1 replication assay in N-Tert keratinocytes (anti-HSV immunostaining); format: cell-based; settings: for effects on HSV1 replication: FIG. 4B; for effect on HSV1 replication: pre-treatment virus incubation reduced by 2 hours, FIG. 5B
Method: as §2, with “trypsin.” for “trypsin. The trypsinised cells were then pooled with the decanted growth medium and an aliquot taken for analysis of cell viability using Via-1 cassette NC3000 cell cytometer assays (CheoMetec A/S, Denmark). The remaining cells were centrifuged at 6000 g for 5 minutes, the medium aspirated and the cells re-suspended and washed with 10 ml of PBS followed by re-centrifugation. Finally the cells were re-suspended in 70% of ice-cold ethanol, stored overnight at 4° C. and a volume containing 60,000 cells was aliquoted into 1.5 ml Eppendorf tubes and centrifuged for 5 minutes at 5000 rpm.”

[8] = test system: uninfected N-Tert keratinocytes; assay: Cytotoxicity assay (Via-1 cassette viability); format: cell-based; settings: human, 48 h
Method: as §1

[9] = cited from earlier work

## Nc1nc2c(ncn2CCC(CO)CO)c(=O)[nH]1 [penciclovir]
[1]; 1% penciclovir cream
  improvement of healing times: approximately 10%

## CC(C)c1nc(CN(C)C(=O)N[C@H](C(=O)N[C@@H](Cc2ccccc2)C[C@H](O)[C@H](Cc2ccccc2)NC(=O)OCc2cncs2)C(C)C)cs1 (relative stereo) [ritonavir, 10-Hydroxy-2-methyl-5-(1-methylethyl)-1-[2-(1-methylethyl)-4-thiazolyl]-3,6-dioxo-8,11bis(phenylmethyl)-2,4,7,12-tetraazatridecan-13-oic acid, 5-thiazolylmethylester, [5S-(5R*,8R*,10R8,11R*)]]
[2]
  effect on herpesvirus replication: ineffective

## Nc1nc2c(ncn2COCCO)c(=O)[nH]1 [Acyclovir, acyclovir]
[3]; Acyclovir, FIG. 6B
  number of virus positive cells: did not, as expected reduce the number of virus positive cells
[4]
  concentration required for toxicity against this strain: > 100 µM
[5]
  concentration that proved very effective: < 0.8 µM
[1]; 3-5% acyclovir cream
  improvement of healing times: approximately 10%

## Cc1c(O)cccc1C(=O)N[C@@H](CSc1ccccc1)[C@H](O)CN1C[C@H]2CCCC[C@H]2C[C@H]1C(=O)NC(C)(C)C [nelfinavir]
[6]; 2 μM
  effect against HSV2 replication: less effective against HSV2 replication than 10 μM nelfinavir
[6]; 5 μM
  effect against HSV2 replication: less effective against HSV2 replication than 10 μM nelfinavir
[6]; 10 μM
  effect against HSV2 replication: as effective as 20 μM 12:1 Lop/Rit
[7]; 2 μM
  effects on HSV1 replication: very modest effects
  effect on HSV1 replication: no discernible effect
[7]; 10 μM
  effects on HSV1 replication: very modest effects
  effect on HSV1 replication: no discernible effect
[8]
  concentrations with significant toxic effects on eukaryotic cells: above 2 μM
[8]; 10 μM
  cell viability: < 60%
[8]; 20 μM
  cell viability: about 40%
[2]
  effect on herpesvirus replication: inhibitory effect on viruses

## Cc1cccc(C)c1OCC(=O)N[C@@H](Cc1ccccc1)[C@@H](O)C[C@H](Cc1ccccc1)NC(=O)[C@H](C(C)C)N1CCCNC1=O (relative stereo) [lopinavir, [1S-[1R*(R*), 3R*, 4R*]]-N-[4-[(2,6-dimethylphenoxy0acetyl]amino]-3-hydroxy-5-phenyl-1-(phenylmethyl)pentyl]tetrahydro-alpha-(1-methylethyl)-2-oxo-1(2H)-pyrimidineacetamide]
[6]; 20 μM
  effect against HSV2 replication compared with nelfinavir: more effective against HSV2 replication than either 2 or 5 μM nelfinavir
[6]; 20 μM, 48 hours, FIG. 1B
  HSV2 positive cells (anti-HSV antibody immunostaining images): Very few HSV2 positive cells
[6]; 20 μM, 48 hours, N-Tert keratinocytes, FIG. 1A
  cytopathic effects of HSV2 infection (phase contrast morphology): virtually no cytopathic effects
[6]; 20 μM, FIG. 1C
  percentage of virus positive cells (quantitative analysis of immune staining): marked reduction
[7]; 20 μM
  effect on HSV1 replication: by far the greatest activity
[3]; 10 μM, FIG. 6B (DMSO control 50%)
  number of virus positive cells: 10%
[3]; 20 μM, FIG. 6B (DMSO control 50%)
  number of virus positive cells: 5%
[2]
  effect on herpesvirus replication: ineffective
[9]
  solubility in water: virtually insoluble in water
